# Test results published in paper PMC4977194 (Bioorganic & medicinal chemistry letters, 2016).
# What was measured:
# VMAT2 = VMAT2 (Rattus norvegicus, UniProt Q01827); assay: Vesicular [3H]DA uptake assay; format: biochemical; conditions: for further improvement in inhibitory potency at VMAT2 on hydrolysis of the 4-acetoxy groups: relative to acetoxy precursors 4 and 5
# SERT = SERT (Rattus norvegicus, UniProt P31652); assay: Synaptosomal [3H]5-HT uptake assay; format: biochemical
# Chain of SERT (P31652 whole entry): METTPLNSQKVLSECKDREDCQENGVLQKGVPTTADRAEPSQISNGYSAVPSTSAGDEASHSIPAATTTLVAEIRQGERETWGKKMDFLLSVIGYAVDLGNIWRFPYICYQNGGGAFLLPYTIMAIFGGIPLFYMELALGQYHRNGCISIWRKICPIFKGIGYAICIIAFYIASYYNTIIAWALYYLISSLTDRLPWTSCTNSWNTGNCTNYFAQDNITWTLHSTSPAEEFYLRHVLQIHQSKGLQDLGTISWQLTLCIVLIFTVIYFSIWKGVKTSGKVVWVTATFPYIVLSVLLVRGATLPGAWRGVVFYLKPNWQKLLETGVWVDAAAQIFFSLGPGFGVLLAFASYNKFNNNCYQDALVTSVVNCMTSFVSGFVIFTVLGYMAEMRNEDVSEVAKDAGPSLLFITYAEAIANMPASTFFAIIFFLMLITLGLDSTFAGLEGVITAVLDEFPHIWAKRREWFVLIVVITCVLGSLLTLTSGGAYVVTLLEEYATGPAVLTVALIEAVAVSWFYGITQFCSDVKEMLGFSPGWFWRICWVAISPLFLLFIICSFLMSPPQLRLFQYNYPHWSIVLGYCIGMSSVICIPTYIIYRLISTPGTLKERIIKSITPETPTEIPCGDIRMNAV
# Chain of VMAT2 (Q01827 whole entry): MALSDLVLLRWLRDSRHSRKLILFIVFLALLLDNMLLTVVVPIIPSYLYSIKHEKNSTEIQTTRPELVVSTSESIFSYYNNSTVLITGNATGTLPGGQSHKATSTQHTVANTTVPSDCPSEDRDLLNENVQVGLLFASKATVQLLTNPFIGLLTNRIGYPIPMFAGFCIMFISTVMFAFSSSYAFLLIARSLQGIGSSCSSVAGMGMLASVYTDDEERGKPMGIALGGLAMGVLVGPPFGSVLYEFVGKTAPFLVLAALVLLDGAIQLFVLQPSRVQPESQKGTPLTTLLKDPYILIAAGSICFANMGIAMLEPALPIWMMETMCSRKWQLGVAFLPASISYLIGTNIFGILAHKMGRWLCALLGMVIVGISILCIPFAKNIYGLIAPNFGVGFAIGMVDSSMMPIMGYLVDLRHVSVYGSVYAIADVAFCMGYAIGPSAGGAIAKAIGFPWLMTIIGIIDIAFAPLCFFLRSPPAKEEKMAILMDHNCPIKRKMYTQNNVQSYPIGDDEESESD
compound,measurement,setting,value
CC(=O)Oc1ccc(CC[C@H]2CCC[C@@H](CCc3ccc(OC(C)=O)cc3)N2C)cc1.Cl [Compound 5],improved inhibitory potency at VMAT2 relative to 4,VMAT2; N-methylation of 4,3 fold
CN1[C@@H](CCc2ccc(O)cc2)CCC[C@H]1CCc1ccc(O)cc1.Cl [Compound 6],further improvement in inhibitory potency at VMAT2 on hydrolysis of the 4-acetoxy groups,VMAT2,about 2 fold
Cl.Oc1ccc(CC[C@H]2CCC[C@@H](CCc3ccc(O)cc3)N2)cc1 [Compound 7],further improvement in inhibitory potency at VMAT2 on hydrolysis of the 4-acetoxy groups,VMAT2,about 2 fold
Cl.FCCOc1ccc(CC[C@H]2CCC[C@@H](CCc3ccc(OCCF)cc3)N2)cc1 [Compound 13],greater affinity for SERT than lobelane,SERT,6 fold
Cl.OC[C@H](O)CN1[C@@H](CCc2ccc(O)cc2)CCC[C@H]1CCc1ccc(OCCF)cc1 [Compound 16],greater affinity for SERT than GZ-793A,SERT,7 fold
Cl.OC[C@H](O)CN1[C@@H](CCc2ccc(OCCF)cc2)CCC[C@H]1CCc1ccc(OCCF)cc1 [Compound 17],decrease in affinity for SERT when compared to GZ-793A,SERT,4 fold
